According to patent US20220226299A1 (NIPPON CHEMIPHAR CO., LTD., priority 2019, published 2022):
Counter-ions that a name gives are not always drawn.

Each compound was assayed against T1, human Cav3.2 channels (Homo sapiens, UniProt O95180) (assay: T-type calcium blocking action: intracellular calcium (Fluo-4 AM fluorescence) in HEK293 cells steadily expressing human Cav3.2 channels). Details: HEK293 cells expressing human Cav3.2; KCl-stimulated calcium influx, Fluo-4 fluorescence; Tables 1 to 3.
T1 construct: human Cav3.2 channel ORF (Open Reading Frame) gene; expressed in transfected cells; host or cells: HEK293 cells (ATCC No. CRL-1573), pcDNA3.1(+) plasmid
T1 sequence (O95180 whole entry): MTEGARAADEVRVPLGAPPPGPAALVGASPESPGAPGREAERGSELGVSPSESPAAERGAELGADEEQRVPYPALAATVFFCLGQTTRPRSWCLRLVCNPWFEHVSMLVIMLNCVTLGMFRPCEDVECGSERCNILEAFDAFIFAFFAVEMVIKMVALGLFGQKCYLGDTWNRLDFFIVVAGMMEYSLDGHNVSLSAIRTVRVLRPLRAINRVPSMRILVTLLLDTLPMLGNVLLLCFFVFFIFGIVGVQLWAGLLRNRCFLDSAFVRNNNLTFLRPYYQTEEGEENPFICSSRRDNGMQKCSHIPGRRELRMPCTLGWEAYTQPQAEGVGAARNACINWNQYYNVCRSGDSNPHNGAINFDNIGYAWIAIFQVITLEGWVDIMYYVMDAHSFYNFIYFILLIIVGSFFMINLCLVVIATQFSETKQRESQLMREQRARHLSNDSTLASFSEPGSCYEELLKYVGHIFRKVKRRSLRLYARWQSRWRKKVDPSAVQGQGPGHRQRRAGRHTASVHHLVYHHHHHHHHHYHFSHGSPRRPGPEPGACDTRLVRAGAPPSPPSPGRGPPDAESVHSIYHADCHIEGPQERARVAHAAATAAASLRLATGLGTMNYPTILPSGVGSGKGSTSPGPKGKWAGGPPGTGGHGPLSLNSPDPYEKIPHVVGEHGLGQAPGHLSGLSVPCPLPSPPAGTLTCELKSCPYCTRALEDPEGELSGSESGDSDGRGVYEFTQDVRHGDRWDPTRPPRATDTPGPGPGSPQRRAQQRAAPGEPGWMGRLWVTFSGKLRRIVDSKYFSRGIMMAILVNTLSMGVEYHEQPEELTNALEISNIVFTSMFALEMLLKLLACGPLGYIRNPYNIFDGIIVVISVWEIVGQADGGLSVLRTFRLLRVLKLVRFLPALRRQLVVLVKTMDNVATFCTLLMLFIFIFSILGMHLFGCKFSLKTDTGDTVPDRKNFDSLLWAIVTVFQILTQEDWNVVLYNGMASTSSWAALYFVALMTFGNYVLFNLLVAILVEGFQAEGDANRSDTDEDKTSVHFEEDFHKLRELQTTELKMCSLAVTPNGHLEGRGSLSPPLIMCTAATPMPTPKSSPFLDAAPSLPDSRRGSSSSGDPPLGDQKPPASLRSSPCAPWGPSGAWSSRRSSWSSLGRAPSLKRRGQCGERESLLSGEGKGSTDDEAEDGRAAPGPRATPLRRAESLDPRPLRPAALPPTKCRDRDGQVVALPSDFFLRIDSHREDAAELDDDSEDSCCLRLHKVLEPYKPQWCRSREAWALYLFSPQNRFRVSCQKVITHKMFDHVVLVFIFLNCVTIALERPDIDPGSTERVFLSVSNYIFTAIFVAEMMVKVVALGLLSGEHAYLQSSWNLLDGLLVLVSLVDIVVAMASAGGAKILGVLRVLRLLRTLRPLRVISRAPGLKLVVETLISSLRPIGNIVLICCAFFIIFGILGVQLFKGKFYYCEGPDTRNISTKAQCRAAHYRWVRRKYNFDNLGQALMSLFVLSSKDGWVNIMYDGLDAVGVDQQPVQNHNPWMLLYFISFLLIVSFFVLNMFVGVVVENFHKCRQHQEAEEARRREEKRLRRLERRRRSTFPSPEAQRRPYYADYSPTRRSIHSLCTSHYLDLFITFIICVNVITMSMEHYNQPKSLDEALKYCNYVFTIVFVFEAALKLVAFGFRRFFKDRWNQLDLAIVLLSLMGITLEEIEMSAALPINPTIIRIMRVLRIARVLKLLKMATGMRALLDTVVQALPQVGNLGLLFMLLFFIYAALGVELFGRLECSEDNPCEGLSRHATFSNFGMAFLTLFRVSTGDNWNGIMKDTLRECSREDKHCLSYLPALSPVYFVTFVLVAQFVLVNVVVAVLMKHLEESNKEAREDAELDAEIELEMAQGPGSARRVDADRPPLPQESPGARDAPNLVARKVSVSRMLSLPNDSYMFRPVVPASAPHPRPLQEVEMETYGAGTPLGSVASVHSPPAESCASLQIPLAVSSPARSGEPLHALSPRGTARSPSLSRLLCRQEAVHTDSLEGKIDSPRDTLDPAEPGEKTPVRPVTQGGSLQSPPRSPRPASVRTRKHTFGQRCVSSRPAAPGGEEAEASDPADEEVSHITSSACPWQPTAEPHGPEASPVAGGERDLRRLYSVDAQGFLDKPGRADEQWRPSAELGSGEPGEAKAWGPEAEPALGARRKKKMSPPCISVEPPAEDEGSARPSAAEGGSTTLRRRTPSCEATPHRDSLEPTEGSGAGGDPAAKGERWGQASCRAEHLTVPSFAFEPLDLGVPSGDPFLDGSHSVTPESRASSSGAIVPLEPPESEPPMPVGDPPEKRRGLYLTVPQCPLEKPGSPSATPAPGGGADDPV
Assay type: cell-based
Text: T-Type Calcium Blocking Action
(1) Construction of Cells Steadily Expressing Human Cav3.2 Channels
A sequence obtained by adding HindIII site and a kozak sequence (GCCACC) to the 5′-side of human Cav3.2 channel ORF (Open Reading Frame) gene and adding a KpnI site to the 3′-side of the gene, was incorporated into pcDNA3.1(+) (Thermo Fisher Scientific, #V790-20), and the plasmid was introduced into HEK293 cells (ATCC No. CRL-1573) according to the protocol of FuGENE (registered trademark) HD Transfection Reagent (Promega, #E2311).
(2) Method for Measuring Intracellular Calcium Concentration
The cells steadily expressing human Cav3.2 channels produced by testing method (1) were seeded on a 96-well plate (Dulbecco's modified Eagle medium (DMEM) medium containing 10% fetal bovine serum (FBS) was used as a medium). The cells were seeded and cultured for 48 hours under conditions of 37° C. and 5% CO2. Thereafter, the cells were washed with buffer A in order to remove the medium. Each well was treated with 80 μL of a fluorescent dye solution produced by mixing 22 μg of a fluorescent calcium indicator, Fluo-4 AM (Dojindo Laboratories, #F311), 20 μL of DMSO, 1 μL of 10% Pluronic F-127 (Thermo Fisher Scientific, #P6866), and 4 mL of buffer A. The cells were allowed to stand for 45 minutes at room temperature under light-shielded conditions, and then washed with buffer B in order to completely replace the solution. 70 μL of DMSO having the same concentration as that of a test compound as a negative control and 70 μL of a mixture containing 1 μM of a known blocker RQ-00311651 and the test compound as a positive control were each added to each well in a form of being contained in the buffer B. The test compound was dissolved in 100% DMSO and added at a final concentration of 0.1%. Then, the cells were further allowed to stand at room temperature under light-shielded conditions for 15 minutes and placed in a microplate reader EnVision (PerkinElmer). Background fluorescence was measured in each well, and then a 5 μg/mL grammicidin solution was added to buffer B at 10 μL/well. After 90 seconds, baseline fluorescence was measured. Thereafter, 83.8 mM KCl was added to buffer B at 20 μL/well, and an increase in fluorescence caused by calcium influx generated by the stimulus was measured for 10 seconds. A blocking percentage was calculated from a maximum fluorescence increase value from a baseline, a logarithmic value of a compound concentration and blockery activity were plotted, and thereby an IC50 value was calculated. In the measurement, fluorescence at 510 nm that was emitted when the cells were irradiated with excitation light at 485 nm was observed.
Buffer A: 140 mM NaCl, 5 mM KCl, 1 mM MgCl2, 0.5 mM CaCl2, 10 mM Glucose, 10 mM HEPES, pH 7.3
Buffer B: 137.9 mM Choline-Cl, 4.1 mM KCl, 1 mM MgCl2, 0.5 mM CaCl2, 10 mM Glucose, 10 mM HEPES, pH 7.3

Compound	IC50
O=C(N[C@@H]1CCN(c2cncc(C(F)(F)F)c2)C1)[C@H]1C[C@@H]1c1nc2cc(F)c(F)cc2o1 [Example 45]	11 nM
O=C(Cc1ccc(N2CC3(COC3)C2)cc1)N[C@@H]1CCN(c2cncc(C(F)(F)F)c2)C1 [Example 46, (R)-2-(4-(2-oxa-6-azaspiro[3.3]heptan-6-yl)phenyl)-N-(1-(5-(trifluoromethyl)pyridin-3-yl)pyrrolidin-3-yl) acetamide]	260 nM
O=C(N[C@@H]1CCN(c2nc(C(F)(F)F)cs2)C1)[C@H]1C[C@@H]1c1nc2ccccc2o1 [Example 47, (1S,2S)-2-(benzo[d]oxazol-2-yl)-N—((R)-1-(4-(trifluoromethyl)thiazol-2-yl)pyrrolidin-3-yl)cyclopropane-1-carboxyamide]	350 nM
O=C(N[C@@H]1CCN(c2ccc(C(F)(F)F)nc2)C1)[C@H]1C[C@@H]1c1nc2ccc(F)cc2o1 [Example 48, (1S,2S)-2-(6-fluorobenzo[d]oxazol-2-yl)-N—((R)-1-(6-(trifluoromethyl)pyridin-3-yl)pyrrolidin-3-yl)cyclopropane-1-carboxyamide]	240 nM
O=C(N[C@@H]1CCN(c2cncc(C(F)(F)F)c2)C1)[C@@H]1C[C@H]1c1nc2ccccc2o1 [Example 50, (1R,2R)-2-(benzo[d]oxazol-2-yl)-N—((R)-1-(5-(trifluoromethyl)pyridin-3-yl)pyrrolidin-3-yl)cyclopropane-1-carboxyamide]	680 nM
O=C(N[C@@H]1CCCN(c2ccc(C(F)(F)F)cc2)C1)[C@H]1C[C@@H]1c1nc2ccccc2[nH]1 [Example 65, (1S,2S)-2-(1H-benzo[d]imidazol-2-yl)-N—((R)-1-(4-(trifluoromethyl)phenyl)piperidin-3-yl)cyclopropane-1-carboxyamide]	8900 nM
O=C(N[C@@H]1CCN(c2nc3ccc(F)cc3s2)C1)[C@H]1C[C@@H]1c1nc2ccccc2[nH]1 [Example 72, (1S,2S)-2-(1H-benzo[d]imidazol-2-yl)-N—((R)-1-(6-fluorobenzo[d]thiazol-2-yl)pyrrolidin-3-yl)cyclopropane-1-carboxyamide]	210 nM
O=C(N[C@@H]1CCN(c2ccc(C(F)(F)F)nc2)C1)[C@H]1C[C@@H]1c1nc2ccccc2n1C1CC1 [Example 73, (1S,2S)-2-(1-cyclopropyl-1H-benzo[d]imidazol-2-yl)-N—((R)-1-(6-(trifluoromethyl)pyridin-3-yl)pyrrolidin-3-yl)cyclopropane-1-carboxyamide]	1000 nM
O=C(N[C@@H]1CCN(c2cccc(C(F)(F)F)c2)C1)[C@H]1C[C@@H]1c1nc2ccccc2n1C1CC1 [Example 75, (1S,2S)-2-(1-cyclopropyl-1H-benzo[d]imidazol-2-yl)-N—((R)-1-(3-(trifluoromethyl)phenyl)pyrrolidin-3-yl)cyclopropane-1-carboxyamide]	310 nM
O=C(Cc1c[nH]c2ccccc12)N[C@@H]1CCN(c2cncc(C(F)(F)F)c2)C1 [Example 78, (R)-2-(1H-indol-3-yl)-N-(1-(5-(trifluoromethyl)pyridin-3-yl)pyrrolidin-3-yl)acetamide]	270 nM
O=C(Cc1ccc(C2CC2)cc1)N[C@@H]1CCN(c2nc(C(F)(F)F)co2)C1 [Example 80, (R)-2-(4-cyclopropylphenyl)-N-(1-(4-(trifluoromethyl)oxazol-2-yl)pyrrolidin-3-yl)acetamide]	720 nM
Cn1nc(CC(=O)N[C@@H]2CCN(c3cncc(C(F)(F)F)c3)C2)cc1C(F)(F)F [Example 81, (R)-2-(1-methyl-5-(trifluoromethyl)-1H-pyrazol-3-yl)-N-(1-(5-(trifluoromethyl)pyridin-3-yl)pyrrolidin-3-yl) acetamide]	550 nM
O=C(Cc1ccc(C(F)(F)F)nc1)N[C@@H]1CCN(c2cncc(C(F)(F)F)c2)C1 [Example 82, (R)-2-(6-(trifluoromethyl)pyridin-3-yl)-N-(1-(5-(trifluoromethyl)pyridin-3-yl)pyrrolidin-3-yl)acetamide]	750 nM

The remaining lines, values ahead:

IC50	Compound
14 nM	O=C(N[C@@H]1CCN(c2cncc(C(F)(F)F)c2)C1)[C@H]1C[C@@H]1c1nc2ccc(F)cc2o1 [Example 44, (1S,2S)-2-(6-fluorobenzo[d]oxazol-2-yl)-N—((R)-1-(5-(trifluoromethyl)pyridin-3-yl)pyrrolidin-3-yl)cyclopropane-1-carboxyamide]
7.1 nM	O=C(N[C@@H]1CCN(c2cncc(C(F)(F)F)c2)C1)[C@H]1C[C@@H]1c1nc2cc(F)ccc2o1 [Example 49, (1S,2S)-2-(5-fluorobenzo[d]oxazol-2-yl)-N—((R)-1-(5-(trifluoromethyl)pyridin-3-yl)pyrrolidin-3-yl)cyclopropane-1-carboxyamide]
120 nM	O=C(N[C@@H]1CCN(c2ccc(C(F)(F)F)nc2)C1)[C@H]1C[C@@H]1c1nc2cc(F)ccc2o1 [Example 51]
87 nM	O=C(N[C@@H]1CCN(c2ccc(C(F)(F)F)nc2)C1)[C@H]1C[C@@H]1c1nc2ccccc2[nH]1 [Example 54, (1S,2S)-2-(1H-benzo[d]imidazol-2-yl)-N—((R)-1-(6-(trifluoromethyl)pyridin-3-yl)pyrrolidin-3-yl)cyclopropane-1-carboxyamide]
37 nM	O=C(N[C@@H]1CCN(c2nc(C(F)(F)F)cs2)C1)[C@H]1C[C@@H]1c1nc2ccccc2[nH]1 [Example 64, (1S,2S)-2-(1H-benzo[d]imidazol-2-yl)-N—((R)-1-(4-(trifluoromethyl)thiazol-2-yl)pyrrolidin-3-yl)cyclopropane-1-carboxyamide]
75 nM	CC(C)(C)c1csc(N2CC[C@@H](NC(=O)[C@H]3C[C@@H]3c3nc4ccccc4[nH]3)C2)n1 [Example 68, (1S,2S)-2-(1H-benzo[d]imidazol-2-yl)-N—((R)-1-(4-(tert-butyl)thiazol-2-yl)pyrrolidin-3-yl)cyclopropane-1-carboxyamide]
210 nM	O=C(N[C@@H]1CCN(c2cnc(C(F)(F)F)nc2)C1)[C@H]1C[C@@H]1c1nc2ccccc2[nH]1 [Example 70, (1S,2S)-2-(1H-benzo[d]imidazol-2-yl)-N—((R)-1-(2-(trifluoromethyl)pyrimidin-5-yl)pyrrolidin-3-yl)cyclopropane-1-carboxyamide]
7.9 nM	O=C(N[C@@H]1CCN(c2cncc(C(F)(F)F)c2)C1)[C@H]1C[C@@H]1c1nc2ccccc2[nH]1 [Example 71, (1S,2S)-2-(1H-benzo[d]imidazol-2-yl)-N—((R)-1-(5-(trifluoromethyl)pyridin-3-yl)pyrrolidin-3-yl)cyclopropane-1-carboxyamide]
130 nM	O=C(N[C@@H]1CCN(c2ccc3cc(F)ccc3n2)C1)[C@H]1C[C@@H]1c1nc2ccccc2[nH]1 [Example 74, (1S,2S)-2-(1H-benzo[d]imidazol-2-yl)-N—((R)-1-(6-fluoroquinolin-2-yl)pyrrolidin-3-yl)cyclopropane-1-carboxyamide]
67 nM	O=C(N[C@@H]1CCN(c2cncc(Br)c2)C1)[C@H]1C[C@@H]1c1nc2ccccc2[nH]1 [Example 76, (1S,2S)-2-(1H-benzo[d]imidazol-2-yl)-N—((R)-1-(5-bromopyridin-3-yl)pyrrolidin-3-yl)cyclopropane-1-carboxyamide]
200 nM	O=C(Cc1ccc2ncccc2c1)N[C@@H]1CCN(c2cncc(C(F)(F)F)c2)C1 [Example 77, (R)-2-(quinolin-6-yl)-N-(1-(5-(trifluoromethyl)pyridin-3-yl)pyrrolidin-3-yl)acetamide]
150 nM	O=C(Cc1ccc2cccnc2c1)N[C@@H]1CCN(c2cncc(C(F)(F)F)c2)C1 [Example 79, (R)-2-(quinolin-7-yl)-N-(1-(5-(trifluoromethyl)pyridin-3-yl)pyrrolidin-3-yl)acetamide hydrochloride]
82 nM	[2H]C([2H])(C(=O)N[C@@H]1CCN(c2cncc(C(F)(F)F)c2)C1)c1ccc(C(F)(F)F)cc1 [Example 83, (R)-2-(4-(trifluoromethyl)phenyl)-N-(1-(5-(trifluoromethyl)pyridin-3-yl)pyrrolidin-3-yl)acetamide-2,2-d2]
